# Laboratory results reported in patent US11673855B2, “Voltage gated sodium channel imaging agents” (The General Hospital Corporation, priority 2017, dated 2023).
# Entries after “also recorded” stand apart in the source; their conditions may differ.
# Key:
# SCN5A [1] = target: T1, SCN5A (Rattus norvegicus, UniProt P15389); assay: Ex vivo F-18 autoradiography of rat myocardium; assay type: binding
# T1 construct: Heart sections ([…] thickness) were prepared using a −20° C. cryostat and thaw-mounted onto gelatin-coated slides; from tissue; host or cells: rat heart (myocardium) cryosections
# T1 sequence (P15389 whole entry): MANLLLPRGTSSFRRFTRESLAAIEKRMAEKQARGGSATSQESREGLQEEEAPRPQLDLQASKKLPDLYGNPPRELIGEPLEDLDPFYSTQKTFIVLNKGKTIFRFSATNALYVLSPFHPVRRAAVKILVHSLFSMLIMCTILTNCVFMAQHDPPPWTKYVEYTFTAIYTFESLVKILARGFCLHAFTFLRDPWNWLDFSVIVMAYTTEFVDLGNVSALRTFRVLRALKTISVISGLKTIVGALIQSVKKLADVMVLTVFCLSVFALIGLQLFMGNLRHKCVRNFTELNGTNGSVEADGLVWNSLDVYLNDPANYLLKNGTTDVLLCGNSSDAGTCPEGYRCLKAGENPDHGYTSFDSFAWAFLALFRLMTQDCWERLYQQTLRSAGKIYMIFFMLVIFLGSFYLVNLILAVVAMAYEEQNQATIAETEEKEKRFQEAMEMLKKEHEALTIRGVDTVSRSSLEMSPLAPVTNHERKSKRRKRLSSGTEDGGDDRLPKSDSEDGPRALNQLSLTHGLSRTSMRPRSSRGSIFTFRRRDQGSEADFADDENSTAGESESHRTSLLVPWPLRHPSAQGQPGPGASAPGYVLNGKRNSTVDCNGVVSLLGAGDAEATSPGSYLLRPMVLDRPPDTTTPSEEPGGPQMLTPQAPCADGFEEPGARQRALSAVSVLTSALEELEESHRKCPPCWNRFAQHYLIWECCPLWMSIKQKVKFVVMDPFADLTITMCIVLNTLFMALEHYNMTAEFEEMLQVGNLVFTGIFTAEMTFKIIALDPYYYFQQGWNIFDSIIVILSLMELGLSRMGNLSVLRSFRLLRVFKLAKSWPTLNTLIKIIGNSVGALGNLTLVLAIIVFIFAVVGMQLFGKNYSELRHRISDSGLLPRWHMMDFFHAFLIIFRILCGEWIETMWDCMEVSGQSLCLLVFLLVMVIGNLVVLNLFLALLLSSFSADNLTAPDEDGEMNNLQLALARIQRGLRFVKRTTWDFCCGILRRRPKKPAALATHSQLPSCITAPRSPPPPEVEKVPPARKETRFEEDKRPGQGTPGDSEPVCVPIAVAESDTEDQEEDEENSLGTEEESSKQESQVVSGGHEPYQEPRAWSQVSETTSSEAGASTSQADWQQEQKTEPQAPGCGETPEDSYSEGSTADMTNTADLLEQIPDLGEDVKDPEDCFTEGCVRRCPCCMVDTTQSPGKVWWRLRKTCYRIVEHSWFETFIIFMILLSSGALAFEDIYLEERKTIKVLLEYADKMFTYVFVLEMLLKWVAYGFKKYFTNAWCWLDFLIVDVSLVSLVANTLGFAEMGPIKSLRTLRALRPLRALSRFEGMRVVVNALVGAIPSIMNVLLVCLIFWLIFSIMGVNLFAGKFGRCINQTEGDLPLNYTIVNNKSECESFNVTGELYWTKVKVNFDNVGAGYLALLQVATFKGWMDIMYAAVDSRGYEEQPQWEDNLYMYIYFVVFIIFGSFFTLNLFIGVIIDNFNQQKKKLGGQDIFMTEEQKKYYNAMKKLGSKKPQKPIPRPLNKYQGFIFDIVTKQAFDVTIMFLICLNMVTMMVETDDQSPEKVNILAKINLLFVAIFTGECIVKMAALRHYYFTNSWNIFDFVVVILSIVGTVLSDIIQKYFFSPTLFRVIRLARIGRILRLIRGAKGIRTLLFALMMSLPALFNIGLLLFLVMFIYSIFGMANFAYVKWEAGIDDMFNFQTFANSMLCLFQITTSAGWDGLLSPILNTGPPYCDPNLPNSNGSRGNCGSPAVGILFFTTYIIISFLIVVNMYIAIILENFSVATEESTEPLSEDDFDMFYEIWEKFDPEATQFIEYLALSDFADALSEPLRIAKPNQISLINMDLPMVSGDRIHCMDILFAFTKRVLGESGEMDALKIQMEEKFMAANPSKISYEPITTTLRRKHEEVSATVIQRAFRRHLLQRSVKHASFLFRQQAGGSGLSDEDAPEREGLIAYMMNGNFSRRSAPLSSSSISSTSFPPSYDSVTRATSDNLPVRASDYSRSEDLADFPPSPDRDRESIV
# Method: Heart sections ([…] thickness) were prepared using a −20° C. cryostat and thaw-mounted onto gelatin-coated slides. The slides were stored at −20° C. until the day of the experiment. […] Individual images of sections were cropped using ImageJ with no additional adjustment to color levels/thresholds. The experimental setup was designed such that both baseline and competition experiments contained the same amount of radioactivity and were imaged on the same screen. […] For variation of washing times, the incubation was held constant at 15 min.
# SCN5A [2] = target: T2, SCN5A (Homo sapiens, UniProt Q14524); assay: Ex vivo autoradiography of human heart tissue, self-displacement dose-response; assay type: binding; settings: self-inhibition, modified Cheng-Prusoff equation
# T2 construct: Non-failing human donor heart samples were compared to explanted tissue from patients who had suffered from heart failure; from tissue; host or cells: human left ventricular myocardium (non-failing donor hearts and explanted DCM-failing hearts)
# T2 sequence (Q14524 whole entry): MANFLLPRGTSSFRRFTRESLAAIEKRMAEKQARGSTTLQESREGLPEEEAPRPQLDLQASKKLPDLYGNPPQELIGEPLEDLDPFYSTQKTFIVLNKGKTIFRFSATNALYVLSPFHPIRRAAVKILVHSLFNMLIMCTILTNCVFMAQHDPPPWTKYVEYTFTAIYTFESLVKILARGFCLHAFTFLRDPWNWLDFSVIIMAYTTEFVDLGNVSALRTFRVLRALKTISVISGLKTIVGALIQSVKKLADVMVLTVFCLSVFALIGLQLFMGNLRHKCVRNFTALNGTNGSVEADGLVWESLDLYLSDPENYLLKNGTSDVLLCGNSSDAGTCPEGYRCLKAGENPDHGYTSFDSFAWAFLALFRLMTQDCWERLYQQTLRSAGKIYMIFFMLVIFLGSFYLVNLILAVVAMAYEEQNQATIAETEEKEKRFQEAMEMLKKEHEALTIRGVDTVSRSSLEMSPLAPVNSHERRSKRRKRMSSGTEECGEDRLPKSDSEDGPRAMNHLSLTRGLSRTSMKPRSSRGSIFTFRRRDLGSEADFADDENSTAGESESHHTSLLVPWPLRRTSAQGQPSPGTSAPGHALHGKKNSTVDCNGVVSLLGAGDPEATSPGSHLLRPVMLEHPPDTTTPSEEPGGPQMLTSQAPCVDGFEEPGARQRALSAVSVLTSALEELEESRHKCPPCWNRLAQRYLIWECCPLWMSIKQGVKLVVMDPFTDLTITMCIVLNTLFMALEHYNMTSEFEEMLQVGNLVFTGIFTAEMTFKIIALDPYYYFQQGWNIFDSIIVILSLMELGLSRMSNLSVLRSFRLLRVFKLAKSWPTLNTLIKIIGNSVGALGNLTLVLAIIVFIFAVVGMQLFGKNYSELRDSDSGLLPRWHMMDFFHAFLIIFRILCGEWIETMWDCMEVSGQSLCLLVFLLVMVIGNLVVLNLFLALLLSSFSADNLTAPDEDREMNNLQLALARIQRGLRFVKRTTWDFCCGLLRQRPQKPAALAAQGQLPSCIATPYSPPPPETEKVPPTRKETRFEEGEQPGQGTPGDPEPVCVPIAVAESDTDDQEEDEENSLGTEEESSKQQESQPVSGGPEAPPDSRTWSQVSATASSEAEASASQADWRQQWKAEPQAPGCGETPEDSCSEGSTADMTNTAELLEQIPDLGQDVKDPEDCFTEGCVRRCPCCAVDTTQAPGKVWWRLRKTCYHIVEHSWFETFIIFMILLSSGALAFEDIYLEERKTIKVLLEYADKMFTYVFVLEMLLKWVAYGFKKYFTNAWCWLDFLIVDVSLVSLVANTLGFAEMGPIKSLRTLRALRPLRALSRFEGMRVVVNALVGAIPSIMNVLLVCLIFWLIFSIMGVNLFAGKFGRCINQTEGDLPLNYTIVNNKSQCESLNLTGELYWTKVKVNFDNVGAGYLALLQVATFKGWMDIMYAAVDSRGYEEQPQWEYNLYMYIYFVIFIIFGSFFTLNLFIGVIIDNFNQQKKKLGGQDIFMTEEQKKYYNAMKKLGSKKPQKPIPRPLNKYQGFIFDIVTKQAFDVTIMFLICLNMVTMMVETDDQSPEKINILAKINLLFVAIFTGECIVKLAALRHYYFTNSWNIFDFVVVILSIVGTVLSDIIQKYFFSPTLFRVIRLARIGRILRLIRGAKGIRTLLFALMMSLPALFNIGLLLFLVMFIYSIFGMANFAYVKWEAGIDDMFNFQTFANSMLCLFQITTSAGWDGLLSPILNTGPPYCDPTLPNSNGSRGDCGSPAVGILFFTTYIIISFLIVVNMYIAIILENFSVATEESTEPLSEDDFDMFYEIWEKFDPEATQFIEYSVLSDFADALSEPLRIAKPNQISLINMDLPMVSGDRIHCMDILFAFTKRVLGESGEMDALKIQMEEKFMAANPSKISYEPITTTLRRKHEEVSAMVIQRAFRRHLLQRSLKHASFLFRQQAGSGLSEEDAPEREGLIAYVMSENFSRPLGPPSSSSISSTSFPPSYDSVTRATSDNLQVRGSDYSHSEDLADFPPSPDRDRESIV
# From the text: Non-failing human donor heart samples were compared to explanted tissue from patients who had suffered from heart failure due to idiopathic dilated cardiomyopathy (DCM) and required cardiac transplantation, as shown in FIGS. 4A-4B (see e.g., Japp et al, J. Am. Coll. Cardiol. 2016, 67:2996-3010).
# To exclude that the reduced signal was the result of a decrease in affinity in diseased vs. healthy tissue and confirm a deficit in channel density, dose-response experiments were performing using N-(2,6-dimethylphenyl)-2-(ethyl(2-fluoroethyl)amino)acetamide as the competition ligand. Using the modified Cheng-Prusoff equation for self-inhibition, these measurements allowed for the determination of Kd-values for the groups NF1 and F1, as shown in FIG. 4B. […] A ˜30% reduction in Bmax was observed.
# rat myocardium = assay: Rodent PET-CT imaging of the myocardium, single bolus and bolus+infusion, with lidocaine block; assay type: in vivo
# Method: Male Sprague-Dawley rats (400-500 g) were anesthetized with inhalational isoflurane (Forane) (3% in a carrier of 1.5-2 L/min medical oxygen for induction and 2% isoflurane for maintenance of anesthesia during the scan). Lateral tail vein catheters were placed for intravenous (i.v.) injection of the compounds. Two rats were arranged head-to-head in a Triumph Trimodality PET/CT/SPECT scanner (Gamma Medica, Northridge, Calif.) or a MicroPET P4 scanner. […] Dynamic PET acquisition was performed over 45 min and was followed by computed tomography (CT) for anatomic coregistration and attenuation correction. […] Reconstructed images were exported from the scanner in DICOM format along with an anatomic CT for rodent studies. These files were imported to AMIDE and Gaussian filtered (kernel size=15, fwhm=1.5 mm). Regions of interest (ROIs) were drawn manually at the lung and myocardium guided by high-resolution CT structural images and summed PET data. Time-activity-curves (TACs) were exported in terms of decay corrected activity per unit volume at specified time points with gradually increasing intervals.
# [3] = system: myocardium of non-human primates; assay: PET/MR imaging of non-human primates; assay type: in vivo
# Method: Two female baboons (Papio anubis, weight=15.2±1.6 kg) were deprived of food for 12 h prior to the study. Anesthesia was induced with intramuscular ketamine (10 mg/kg) and xylazine (0.5 mg/kg). After endotracheal intubation, the baboons were catheterized antecubitally for injection of the radiolabeled compound. Anesthesia was maintained using isoflurane (1-1.5%, 100% oxygen, 1 L/min) during the scan, and ketamine/xylazine effects were reversed with yobine (0.11 mg/kg, i.m.) before image acquisition. Vital signs, including heart rate, respiration rate, blood pressure, O2 saturation, and end tidal CO2, were monitored continuously and recorded every 15 min. Simultaneous PET/MR data were acquired using a Siemens Biograph mMR system (Siemens Healthcare, Erlangen, Germany). Each animal underwent a baseline and a blocking scan on two separate days. MR body imaging was performed with real-time respiratory bellow gating and using the body matrix coil and the built-in spine coil as the receiving coil elements. High-resolution anatomical T1-weighted, dual echo, gradient echo sequence was acquired with the following parameters: TR=194 ms, TE1/TE2=1.23/2.46 ms, matrix size 256×256, FOV=35 cm, phase FOV 65.6% (in-plane resolution=1.4 mm), 4 mm slice thickness, and 80 slices. For the purpose of MR-based attenuation correction of the PET data, a T1-weighted, 2-point Dixon 3D volumetric interpolated breath-hold examination (VIBE) scan was obtained. PET data were obtained using a single-bed position with an axial field of view of 25.8 cm, and a transverse field of view of 59.4 cm. PET data were acquired dynamically for 60 min (bolus injection of N-(2,6-dimethylphenyl)-2-(ethyl(2-(fluoro-^18F)ethyl)amino)acetamide) or 90 min (bolus/infusion of N-(2,6-dimethylphenyl)-2-(ethyl(2-(fluoro-^18F)ethyl)amino)acetamide) after intravenous administration of N-(2,6-dimethylphenyl)-2-(ethyl(2-(fluoro-^18F)ethyl)amino)acetamide (5.0±0.2 mCi bolus or 4 mCi bolus+4 mCi infusion). […] Standard uptake unit (SUV) was calculated as the mean radioactivity per injected dose per weight.
compound,measurement,setting,value
"CCN(CCF)CC(=O)Nc1c(C)cccc1C [Example 1, N-(2,6-dimethylphenyl)-2-(ethyl(2-fluoroethyl)amino)acetamide]",level of non-specific / non-displaceable binding (BNS) as competition ligand,SCN5A [1]; competition ligands at the same concentration against the 18F tracer,same level of BNS as lidocaine; also recorded: same level of non-displaceable binding
same,"Kd-values, non-failing (NF1) vs failing (F1) left ventricular tissue",SCN5A [2],no difference in Kd-values between the groups
"CCN(CC[18F])CC(=O)Nc1c(C)cccc1C [Example 2, N-(2,6-dimethylphenyl)-2-(ethyl(2-(fluoro-^18F)ethyl)amino)acetamide]",reduction of total binding on wash-out,"SCN5A [1]; after 1 min wash, incubation 15 min",50%
same,incubation time after which specific binding (BS) reached a constant level,"SCN5A [1]; incubation times 1, 5, 10, 20 min, wash 1 min",5 min
same,specific binding (BS) as share of overall binding,"SCN5A [1]; rat myocardial slices 20 μm, self-competition with excess (500 μM) unlabeled compound",~70%
same,residence time (t1/2^−1) of the radiotracer,"rat myocardium; from time course of signal reduction after lidocaine, estimation",~1 min⁻¹
same,time to stable baseline signal,rat myocardium; i.v. bolus ~150 μCi followed by constant infusion ~300 μCi over 60 min,20 min
same,time for tracer bolus to reach peak signal,rat myocardium; single bolus,3 min
same,time after bolus injection at which blood pool had cleared and myocardial signal was revealed,rat myocardium; single i.v. bolus,3 min
same,myocardial baseline signal,"rat myocardium; single i.v. bolus, healthy rats",up to 2 % ID/cc
same,estimated residence time,"[3]; bolus 4 mCi + infusion 4 mCi over 90 min, lidocaine challenge",5 min⁻¹
same,time after which blood background cleared,"[3]; single bolus, healthy baboon",2 to 3 min
"CCN(CC)CC(=O)Nc1c(C)cccc1C [lidocaine, reference compound]",time to plateau of full block after the pharmacological dose,rat myocardium; 5 mg/kg lidocaine,3 minutes
same,reduction of tracer signal by in-scan lidocaine challenge,"rat myocardium; 5 mg/kg lidocaine i.v., bolus+infusion paradigm",complete reduction of the radiolabeled compound signal to background level
same,lidocaine dose from which reduction of myocardial tracer signal was observed,"rat myocardium; i.v. 5 min before tracer, compared to vehicle",0.1 mg/kg
same,in vivo IC50 at the myocardium,"rat myocardium; in-scan lidocaine challenges 0.5-5 mg/kg i.v., bolus+infusion, estimation",~0.7 mg/kg
same,effect of lidocaine pre-block on myocardial tracer signal,[3]; 5 mg/kg i.v. lidocaine 5 min prior to tracer,blocked the myocardial signal; also recorded: suppressed the myocardial signal to background levels
